Our source for the EC50 values is US10961198B2, “Farnesoid X receptor agonists and uses thereof” (Metacrine, Inc., priority 2017, dated 2021).

As usually defined, the EC50 is the concentration giving half of the maximal effect. Low values mean an effect from little substance, high ones a need for much substance.

This assay has as its target hFXR (Homo sapiens (Human), UniProt Q96RI1). Kind of assay: In Vitro FXR Assay (TK). The following applies: CV-1 cells transfected with hFXR, hRXR, TK-ECRE-luc and pCMX-YFP; incubated 18 hrs; luminescence; maximum efficacy <25% of the Fexarmine control classified as '+'. The format is cell-based. The protocol:
Example B-1: In Vitro FXR Assay (TK)
CV-1 cells were seeded at a density of 2,000,000 cells in a T175 flask with DMEM+10% charcoal double-stripped FBS and incubated at 37° C. in 5% CO2 for 18 h (O/N).
After 18 h of incubation, the medium in the T175 flask was changed with fresh DMEM+10% charcoal super-stripped serum. In a polypropylene tube, 2500 μL OptiMEM (Life Technologies, Cat #31985-062) was combined with expression plasmids for hFXR, hRXR, TK-ECRE-luc and pCMX-YFP. The tube was then briefly vortexed and incubated at room temperature for 5 minutes. Transfection reagent (X-tremeGENE HP from Roche, Cat #06 366 236 001) was added to the OptiMEM/plasmid mixture vortexed and incubated at room temperature for 20 minutes. Following incubation, the transfection reagent/DNA mixture complex was added to cells in the T175 flask and the cells were incubated at 37° C. in 5% CO2 for 18 h (O/N).
Compounds were serially diluted in DMSO and added to transfected CV-1 cells. The cells were then incubated for 18 hrs. The next day cells were lysed and examined for luminescence.

hFXR, sequence (Q96RI1 whole entry): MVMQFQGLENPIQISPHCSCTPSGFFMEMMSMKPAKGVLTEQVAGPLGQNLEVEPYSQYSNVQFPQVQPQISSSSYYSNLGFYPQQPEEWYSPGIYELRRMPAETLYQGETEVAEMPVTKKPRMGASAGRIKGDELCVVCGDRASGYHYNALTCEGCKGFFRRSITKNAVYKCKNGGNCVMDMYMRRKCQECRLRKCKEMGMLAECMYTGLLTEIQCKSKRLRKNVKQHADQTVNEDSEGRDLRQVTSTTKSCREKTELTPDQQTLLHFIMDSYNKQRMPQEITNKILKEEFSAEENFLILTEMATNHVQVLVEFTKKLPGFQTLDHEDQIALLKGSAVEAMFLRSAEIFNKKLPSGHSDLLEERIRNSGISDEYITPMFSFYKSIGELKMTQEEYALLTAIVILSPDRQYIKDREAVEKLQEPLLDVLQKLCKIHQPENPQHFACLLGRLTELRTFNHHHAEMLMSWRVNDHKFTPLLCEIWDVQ
hFXR, sequence (P19793 whole entry partner): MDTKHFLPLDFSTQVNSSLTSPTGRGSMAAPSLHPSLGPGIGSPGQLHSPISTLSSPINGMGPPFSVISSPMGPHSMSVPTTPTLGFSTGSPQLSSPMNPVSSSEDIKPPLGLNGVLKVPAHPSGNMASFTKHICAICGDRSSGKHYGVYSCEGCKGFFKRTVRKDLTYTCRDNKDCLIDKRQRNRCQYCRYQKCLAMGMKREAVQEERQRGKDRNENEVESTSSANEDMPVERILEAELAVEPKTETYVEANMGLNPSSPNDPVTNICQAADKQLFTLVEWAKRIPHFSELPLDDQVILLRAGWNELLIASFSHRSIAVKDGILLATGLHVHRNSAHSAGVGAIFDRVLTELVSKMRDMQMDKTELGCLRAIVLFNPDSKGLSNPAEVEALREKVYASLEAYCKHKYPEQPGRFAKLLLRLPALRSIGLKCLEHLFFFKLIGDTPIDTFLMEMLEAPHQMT

`COc1ccc([C@H]2CC[C@H](CN(c3cccc(-c4cnn(C5CCC5)c4)c3)C(=O)[C@H]3CC[C@H](O)CC3)CC2)cc1C` [Compound 3.08, trans-N-(3-(1-Cyclobutyl-1H-pyrazol-4-yl)phenyl)-4-hydroxy-N-((trans-4-(4-methoxy-3-methylphenyl)cyclohexyl)methyl)cyclohexanecarboxamide] gave an EC50 of no more than 0.25 µM.
The same measure for `COc1ccc([C@H]2CC[C@H](CN(c3cccc(-c4cnn(C(C)C)c4)c3)C(=O)[C@H]3CC[C@H](O)CC3)CC2)nc1C` [Compound 5.07, trans-4-Hydroxy-N-(3-(1-isopropyl-1H-pyrazol-4-yl)phenyl)-N-((trans-4-(5-methoxy-6-methylpyridin-2-yl)cyclohexyl)methyl)cyclohexanecarboxamide]: no more than 0.25 µM; for `COc1ccc([C@H]2CC[C@H](CN(c3cccc(-c4cnn(C(F)(F)F)c4)c3)C(=O)[C@H]3CC[C@H](O)CC3)CC2)cc1C` [Compound 2.06, trans-4-Hydroxy-N-((trans-4-(4-methoxy-3-methylphenyl)cyclohexyl)methyl)-N-(3-(1-(trifluoromethyl)-1H-pyrazol-4-yl)phenyl)cyclohexanecarboxamide]: no more than 0.25 µM; for `COc1ccc([C@H]2CC[C@H](CN(c3cccc(-c4cnn(CCN(C)C)c4)c3)C(=O)[C@H]3CC[C@H](O)CC3)CC2)cc1C` [Compound 3.06, trans-N-(3-(1-(2-(Dimethylamino)ethyl)-1H-pyrazol-4-yl)phenyl)-4-hydroxy-N-((trans-4-(4-methoxy-3-methylphenyl)cyclohexyl)methyl)cyclohexanecarboxamide]: no less than 1 µM.
`COc1ccc([C@H]2CC[C@H](CN(c3cccc(-c4cnn(C5CCOCC5)c4)c3)C(=O)[C@H]3CC[C@H](O)CC3)CC2)cc1C` [Compound 3.10, trans-4-Hydroxy-N-((trans-4-(4-methoxy-3-methylphenyl)cyclohexyl)methyl)-N-(3-(1-(tetrahydro-2H-pyran-4-yl)-1H-pyrazol-4-yl)phenyl)cyclohexanecarboxamide] registered an EC50 of no more than 0.25 µM.
In the case of `COc1ccc([C@H]2CC[C@H](CN(c3cccc(-c4cnn(C(C)C)c4)c3)C(=O)[C@H]3CC[C@](C)(O)CC3)CC2)cc1C` [Compound 5.27, (1r,4r)-4-Hydroxy-N-(3-(1-isopropyl-1H-pyrazol-4-yl)phenyl)-N-((trans-4-(4-methoxy-3-methylphenyl)cyclohexyl)methyl)-4-methylcyclohexanecarboxamide], the concentration giving a half-maximal response (EC50) was no more than 0.25 µM.
Molecule `COc1ccc([C@H]2CC[C@H](CN(c3cccc(-c4ccn(C)n4)c3)C(=O)[C@H]3CC[C@H](O)CC3)CC2)cc1C` [Compound 3.01, trans-4-Hydroxy-N-((trans-4-(4-methoxy-3-methylphenyl)cyclohexyl)methyl)-N-(3-(1-methyl-1H-pyrazol-3-yl)phenyl)cyclohexanecarboxamide] had an EC50 of no less than 1 µM.
`COc1ccc([C@H]2CC[C@H](CN(c3cc(-c4cnn(C5CC5)c4)ccn3)C(=O)[C@H]3CC[C@H](O)CC3)CC2)nc1C` [Compound 5.09, trans-N-(4-(1-Cyclopropyl-1H-pyrazol-4-yl)pyridin-2-yl)-4-hydroxy-N-((trans-4-(5-methoxy-6-methylpyridin-2-yl)cyclohexyl)methyl)cyclohexanecarboxamide] registered an EC50 of 0.25 to 1 µM.
Then `COc1ccc([C@H]2CC[C@H](CN(c3cccc(-c4cnn(CCO)c4)c3)C(=O)[C@H]3CC[C@H](O)CC3)CC2)cc1C` [Compound 3.05, trans-4-Hydroxy-N-(3-(1-(2-hydroxyethyl)-1H-pyrazol-4-yl)phenyl)-N-((trans-4-(4-methoxy-3-methylphenyl)cyclohexyl)methyl)cyclohexanecarboxamide], with no less than 1 µM.
For the molecule `COc1ccc(C23CCC(CN(c4cc(-c5cnn(C(C)C)c5)ccn4)C(=O)[C@H]4CC[C@H](O)CC4)(CC2)CC3)cc1C` [Compound 2.09], the EC50 is no more than 0.25 µM.
Then `COc1ccc([C@H]2CC[C@H](CN(c3cccc(-c4cnn(CC(F)(F)F)c4)c3)C(=O)[C@H]3CC[C@H](O)CC3)CC2)cc1C` [Compound 3.07, trans-4-Hydroxy-N-((trans-4-(4-methoxy-3-methylphenyl)cyclohexyl)methyl)-N-(3-(1-(2,2,2-trifluoroethyl)-1H-pyrazol-4-yl)phenyl)cyclohexanecarboxamide], with no more than 0.25 µM.
`COc1ccc([C@H]2CC[C@H](CN(c3cccc(-c4cnn(C(C)C)c4)c3)C(=O)[C@H]3CC[C@H](O)CC3)CC2)nc1C#N` [Compound 5.23, trans-N-((trans-4-(6-Cyano-5-methoxypyridin-2-yl)cyclohexyl)methyl)-4-hydroxy-N-(3-(1-isopropyl-1H-pyrazol-4-yl)phenyl)cyclohexanecarboxamide] showed an EC50 of no more than 0.25 µM.
For the molecule `COc1ccc([C@H]2CC[C@H](CN(c3cccc(-c4cnn(C(C)(C)C)c4)c3)C(=O)[C@H]3CC[C@H](O)CC3)CC2)cc1C` [Compound 5.08, trans-N-(3-(1-(tert-Butyl)-1H-pyrazol-4-yl)phenyl)-4-hydroxy-N-((trans-4-(4-methoxy-3-methylphenyl)cyclohexyl)methyl)cyclohexanecarboxamide], the EC50 was no more than 0.25 µM.
Then `COc1ccc(C23CCC(CN(c4cc(-c5cnn(C6CC6)c5)ccn4)C(=O)[C@H]4CC[C@H](O)CC4)(CC2)CC3)cc1C` [Compound 2.08, trans-N-(4-(1-Cyclopropyl-1H-pyrazol-4-yl)pyridin-2-yl)-4-hydroxy-N-((4-(4-methoxy-3-methylphenyl)bicyclo[2.2.2]octan-1-yl)methyl)cyclohexanecarboxamide], with no more than 0.25 µM; and `COc1ccc([C@H]2CC[C@H](CN(c3cccc(-c4cnn(C(C)C)c4)c3)C(=O)[C@H]3CC[C@H](O)CC3)CC2)cc1C#N` [Compound 2.03, trans-N-((trans-4-(3-Cyano-4-methoxyphenyl)cyclohexyl)methyl)-4-hydroxy-N-(3-(1-isopropyl-1H-pyrazol-4-yl)phenyl)cyclohexanecarboxamide], with no more than 0.25 µM.
As for `COc1ccc([C@H]2CC[C@H](CN(c3cc(-c4cnn(C5CC5)c4)ccn3)C(=O)[C@H]3CC[C@H](O)CC3)CC2)cc1C#N` [Compound 5.13, trans-N-((trans-4-(3-Cyano-4-methoxyphenyl)cyclohexyl)methyl)-N-(4-(1-cyclopropyl-1H-pyrazol-4-yl)pyridin-2-yl)-4-hydroxycyclohexanecarboxamide], the EC50 was no more than 0.25 µM.
`COc1ccc([C@H]2CC[C@H](CN(c3cccc(-c4cnn(C(C)(C)C)c4)c3)C(=O)[C@H]3CC[C@H](O)CC3)CC2)nc1C` [Compound 5.15, trans-N-(3-(1-(tert-Butyl)-1H-pyrazol-4-yl)phenyl)-4-hydroxy-N-((trans-4-(5-methoxy-6-methylpyridin-2-yl)cyclohexyl)methyl)cyclohexanecarboxamide] registered an EC50 of no more than 0.25 µM.
Take `COc1ccc([C@H]2CC[C@H](CN(c3cc(-c4cnn(C5CC5)c4)cc(C)n3)C(=O)[C@H]3CC[C@H](O)CC3)CC2)cc1C` [Compound 5.26, trans-N-(4-(1-cyclopropyl-1H-pyrazol-4-yl)-6-methylpyridin-2-yl)-4-hydroxy-N-((trans-4-(4-methoxy-3-methylphenyl)cyclohexyl)methyl)cyclohexanecarboxamide]: the EC50 was in the range of 0.25 to 1 µM.
Then `COc1ccc([C@H]2CC[C@H](CN(c3cccc(-c4cnn(C5CC5)c4)c3)C(=O)[C@H]3CC[C@H](O)CC3)CC2)nc1C` [Compound 5.04, trans-N-(3-(1-cyclopropyl-1H-pyrazol-4-yl)phenyl)-4-hydroxy-N-((trans-4-(5-methoxy-6-methylpyridin-2-yl)cyclohexyl)methyl)cyclohexanecarboxamide], with no more than 0.25 µM; and `COc1ccc([C@H]2CC[C@H](CN(c3cccc(-n4ccc(C)n4)c3)C(=O)[C@H]3CC[C@H](O)CC3)CC2)cc1C` [Compound 5.01, trans-4-Hydroxy-N-((trans-4-(4-methoxy-3-methylphenyl)cyclohexyl)methyl)-N-(3-(3-methyl-1H-pyrazol-1-yl)phenyl)cyclohexanecarboxamide], with 0.25 to 1 µM.
The molecule `COc1ccc([C@H]2CC[C@H](CN(c3cccc(C#Cc4ccn(C)n4)c3)C(=O)[C@H]3CC[C@H](O)CC3)CC2)cc1C` [Compound 4.02, trans-4-Hydroxy-N-((trans-4-(4-methoxy-3-methylphenyl)cyclohexyl)methyl)-N-(3-((1-methyl-1H-pyrazol-3-yl)ethynyl)phenyl)cyclohexanecarboxamide] had an EC50 of no more than 0.25 µM.
For `CN(C)c1ccc([C@H]2CC[C@H](CN(c3cccc(-c4cnn(C5CC5)c4)c3)C(=O)[C@H]3CC[C@H](O)CC3)CC2)cn1` [Compound 5.02, trans-N-(3-(1-Cyclopropyl-1H-pyrazol-4-yl)phenyl)-N-((trans-4-(6-(dimethylamino)pyridin-3-yl)cyclohexyl)methyl)-4-hydroxycyclohexanecarboxamide], the concentration giving a half-maximal response (EC50) was no more than 0.25 µM.
In turn, `COc1ccc([C@H]2CC[C@H](CN(c3cccc(-c4cnn(C(C)C)c4)c3)C(=O)[C@H]3CC[C@@](C)(O)CC3)CC2)cc1C` [Compound 5.28, (1s, 4s)-4-Hydroxy-N-(3-(1-isopropyl-1H-pyrazol-4-yl)phenyl)-N-((trans-4-(4-methoxy-3-methylphenyl)cyclohexyl)methyl)-4-methylcyclohexanecarboxamide] registered an EC50 of no more than 0.25 µM.
